Assays:
Type in all cases: in vivo
Settings in all cases: treatment dosage 320 g/ha
[1] = system: barnyard grass; test: Test Example 1: weedkilling efficacy, preemergent weed treatment in the submerged state; A: barnyard grass
How it was run: (§1)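 Emulsion diluted with water to the specified per-hectare dosage is applied onto flood water (4 cm) over alluvial soil on the sowing day, with barnyard grass, bulrush and pondweed seeded and rice (2.5-leaf) transplanted; plants grow at 25–30 °C and are rated at 3 weeks.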

[2] = system: bulrush; test: Test Example 1: weedkilling efficacy, preemergent weed treatment in the submerged state; B: bulrush
How it was run: as §1

[3] = system: oval-leafed pondweed; test: Test Example 1: weedkilling efficacy, preemergent weed treatment in the submerged state; C: oval-leafed pondweed
How it was run: as §1

[4] = system: transplanted rice; test: Test Example 1: preemergent weed treatment in the submerged state, effect on crop; a: transplanted rice
How it was run: as §1

[5] = system: barnyard grass; test: Test Example 2: weedkilling efficacy, growth period weed treatment in the submerged state; A: barnyard grass
How it was run: (§2)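 First, alluvial soil in pots is flooded to 4 cm and mixed seed is sown. Next, plants grow in a greenhouse at 25 to 30° C until the 1-2 leaf stage. Then diluted emulsion is applied onto the water surface at the given g/ha rate, and injury is assessed after 3 weeks.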

[6] = system: bulrush; test: Test Example 2: weedkilling efficacy, growth period weed treatment in the submerged state; B: bulrush
How it was run: as §2

[7] = system: oval-leafed pondweed; test: Test Example 2: weedkilling efficacy, growth period weed treatment in the submerged state; C: oval-leafed pondweed
How it was run: as §2

[8] = system: crabgrass; test: Test Example 3: weedkilling efficacy through soil treatment; D: crabgrass
How it was run: (§3)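 Crop and weed responses were judged three weeks after a uniform surface spray of the water-diluted emulsion at the given g/ha rate. Seeds sat beneath about 1.5 cm of sterilized diluvial soil, and boxes stood in a greenhouse at 25 to 30° C.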

[9] = system: green foxtail; test: Test Example 3: weedkilling efficacy through soil treatment; E: green foxtail
How it was run: as §3

[10] = system: barnyard grass; test: Test Example 3: weedkilling efficacy through soil treatment; F: barnyard grass
How it was run: as §3

[11] = system: wild oat; test: Test Example 3: weedkilling efficacy through soil treatment; G: wild oat
How it was run: as §3

[12] = system: black-grass; test: Test Example 3: weedkilling efficacy through soil treatment; H: black-grass
How it was run: as §3

[13] = system: Italian ryegrass; test: Test Example 3: weedkilling efficacy through soil treatment; I: Italian ryegrass
How it was run: as §3

[14] = system: common wind-grass; test: Test Example 3: weedkilling efficacy through soil treatment; J: common wind-grass
How it was run: as §3

[15] = system: Indian mallow; test: Test Example 3: weedkilling efficacy through soil treatment; K: Indian mallow
How it was run: as §3

[16] = system: redroot pigweed; test: Test Example 3: weedkilling efficacy through soil treatment; L: redroot pigweed
How it was run: as §3

[17] = system: fig-leafed goosefoot; test: Test Example 3: weedkilling efficacy through soil treatment; M: fig-leafed goosefoot
How it was run: as §3

[18] = system: chickweed; test: Test Example 3: weedkilling efficacy through soil treatment; N: chickweed
How it was run: as §3

[19] = system: catchweed; test: Test Example 3: weedkilling efficacy through soil treatment; O: catchweed
How it was run: as §3

[20] = system: birds-eye speedwell; test: Test Example 3: weedkilling efficacy through soil treatment; p: birds-eye speedwell
How it was run: as §3

[21] = system: directly sown rice; test: Test Example 3: soil treatment, effect on crop; b: directly sown rice
How it was run: as §3

[22] = system: corn; test: Test Example 3: soil treatment, effect on crop; c: corn
How it was run: as §3

[23] = system: soybean; test: Test Example 3: soil treatment, effect on crop; d: soybean
How it was run: as §3

[24] = system: wheat; test: Test Example 3: soil treatment, effect on crop; e: wheat
How it was run: as §3

[25] = system: beet; test: Test Example 3: soil treatment, effect on crop; f: beet
How it was run: as §3

[26] = system: rapeseed; test: Test Example 3: soil treatment, effect on crop; g: rapeseed
How it was run: as §3

[27] = system: crabgrass; test: Test Example 4: weedkilling efficacy by foliar treatment; D: crabgrass
How it was run: (§4)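 Seeds are spot-sown into sterilized diluvial soil and covered with about 1.5 cm of soil. After 14 days' greenhouse growth at 25 to 30° C, plants are sprayed on stems and leaves with diluted emulsion at the stated g/ha rate, then scored at 3 weeks.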

[28] = system: green foxtail; test: Test Example 4: weedkilling efficacy by foliar treatment; E: green foxtail
How it was run: as §4

[29] = system: barnyard grass; test: Test Example 4: weedkilling efficacy by foliar treatment; F: barnyard grass
How it was run: as §4

[30] = system: wild oat; test: Test Example 4: weedkilling efficacy by foliar treatment; G: wild oat
How it was run: as §4

[31] = system: black-grass; test: Test Example 4: weedkilling efficacy by foliar treatment; H: black-grass
How it was run: as §4

[32] = system: Italian ryegrass; test: Test Example 4: weedkilling efficacy by foliar treatment; I: Italian ryegrass
How it was run: as §4

[33] = system: common wind-grass; test: Test Example 4: weedkilling efficacy by foliar treatment; J: common wind-grass
How it was run: as §4

[34] = system: Indian mallow; test: Test Example 4: weedkilling efficacy by foliar treatment; K: Indian mallow
How it was run: as §4

[35] = system: redroot pigweed; test: Test Example 4: weedkilling efficacy by foliar treatment; L: redroot pigweed
How it was run: as §4

[36] = system: fig-leafed goosefoot; test: Test Example 4: weedkilling efficacy by foliar treatment; M: fig-leafed goosefoot
How it was run: as §4

[37] = system: chickweed; test: Test Example 4: weedkilling efficacy by foliar treatment; N: chickweed
How it was run: as §4

[38] = system: catchweed; test: Test Example 4: weedkilling efficacy by foliar treatment; O: catchweed
How it was run: as §4

[39] = system: directly sown rice; test: Test Example 4: foliar treatment, effect on crop; b: directly sown rice
How it was run: as §4

[40] = system: corn; test: Test Example 4: foliar treatment, effect on crop; c: corn
How it was run: as §4

[41] = system: soybean; test: Test Example 4: foliar treatment, effect on crop; d: soybean
How it was run: as §4

[42] = system: wheat; test: Test Example 4: foliar treatment, effect on crop; e: wheat
How it was run: as §4

[43] = system: beet; test: Test Example 4: foliar treatment, effect on crop; f: beet
How it was run: as §4

[44] = system: rapeseed; test: Test Example 4: foliar treatment, effect on crop; g: rapeseed
How it was run: as §4

## CC1=C(c2ccccc2)C(=O)N(C(C)(C)C(=O)Nc2ccc(F)cn2)CO1 [B-2-26]
[1]
  A (barnyard grass) weedkilling efficacy grade: 5 (weed kill ratio 90% or more, (practically complete withering))
[2]
  B (bulrush) weedkilling efficacy grade: 5 (weed kill ratio 90% or more, (practically complete withering))
[3]
  C (oval-leafed pondweed) weedkilling efficacy grade: 5 (weed kill ratio 90% or more, (practically complete withering))
[4]
  a (transplanted rice) effect on crop grade: 0 (weed kill ratio 5% or less (practically no effect))
[5]
  A (barnyard grass) weedkilling efficacy grade: 5 (weed kill ratio 90% or more, (practically complete withering))
[6]
  B (bulrush) weedkilling efficacy grade: 5 (weed kill ratio 90% or more, (practically complete withering))
[7]
  C (oval-leafed pondweed) weedkilling efficacy grade: 5 (weed kill ratio 90% or more, (practically complete withering))
[8]
  D (crabgrass) weedkilling efficacy grade: 5 (weed kill ratio 90% or more, (practically complete withering))
[9]
  E (green foxtail) weedkilling efficacy grade: 5 (weed kill ratio 90% or more, (practically complete withering))
[10]
  F (barnyard grass) weedkilling efficacy grade: 5 (weed kill ratio 90% or more, (practically complete withering))
[11]
  G (wild oat) weedkilling efficacy grade: 1 (weed kill ratio 5% or more, less than 20%)
[12]
  H (black-grass) weedkilling efficacy grade: 5 (weed kill ratio 90% or more, (practically complete withering))
[13]
  I (Italian ryegrass) weedkilling efficacy grade: 5 (weed kill ratio 90% or more, (practically complete withering))
[14]
  J (common wind-grass) weedkilling efficacy grade: 5 (weed kill ratio 90% or more, (practically complete withering))
[15]
  K (Indian mallow) weedkilling efficacy grade: 0 (weed kill ratio 5% or less (practically no effect))
[16]
  L (redroot pigweed) weedkilling efficacy grade: 4 (weed kill ratio 70% or more, less than 90%)
[17]
  M (fig-leafed goosefoot) weedkilling efficacy grade: 4 (weed kill ratio 70% or more, less than 90%)
[18]
  N (chickweed) weedkilling efficacy grade: 3 (weed kill ratio 40% or more, less than 70%)
[19]
  O (catchweed) weedkilling efficacy grade: 2 (weed kill ratio 20% or more, less than 40%)
[20]
  P (birds-eye speedwell) weedkilling efficacy grade: 0 (weed kill ratio 5% or less (practically no effect))
[21]
  b (directly sown rice) effect on crop grade: 2 (weed kill ratio 20% or more, less than 40%)
[22]
  c (corn) effect on crop grade: 0 (weed kill ratio 5% or less (practically no effect))
[23]
  d (soybean) effect on crop grade: 0 (weed kill ratio 5% or less (practically no effect))
[24]
  e (wheat) effect on crop grade: 0 (weed kill ratio 5% or less (practically no effect))
[25]
  f (beet) effect on crop grade: 0 (weed kill ratio 5% or less (practically no effect))
[26]
  g (rapeseed) effect on crop grade: 0 (weed kill ratio 5% or less (practically no effect))
[27]
  D (crabgrass) weedkilling efficacy grade: 3 (weed kill ratio 40% or more, less than 70%)
[28]
  E (green foxtail) weedkilling efficacy grade: 4 (weed kill ratio 70% or more, less than 90%)
[29]
  F (barnyard grass) weedkilling efficacy grade: 3 (weed kill ratio 40% or more, less than 70%)
[30]
  G (wild oat) weedkilling efficacy grade: 3 (weed kill ratio 40% or more, less than 70%)
[31]
  H (black-grass) weedkilling efficacy grade: 4 (weed kill ratio 70% or more, less than 90%)
[32]
  I (Italian ryegrass) weedkilling efficacy grade: 3 (weed kill ratio 40% or more, less than 70%)
[33]
  J (common wind-grass) weedkilling efficacy grade: 5 (weed kill ratio 90% or more, (practically complete withering))
[34]
  K (Indian mallow) weedkilling efficacy grade: 3 (weed kill ratio 40% or more, less than 70%)
[35]
  L (redroot pigweed) weedkilling efficacy grade: 4 (weed kill ratio 70% or more, less than 90%)
[36]
  M (fig-leafed goosefoot) weedkilling efficacy grade: 4 (weed kill ratio 70% or more, less than 90%)
[37]
  N (chickweed) weedkilling efficacy grade: 3 (weed kill ratio 40% or more, less than 70%)
[38]
  O (catchweed) weedkilling efficacy grade: 3 (weed kill ratio 40% or more, less than 70%)
[39]
  b (directly sown rice) effect on crop grade: 1 (weed kill ratio 5% or more, less than 20%)
[40]
  c (corn) effect on crop grade: 3 (weed kill ratio 40% or more, less than 70%)
[41]
  d (soybean) effect on crop grade: 4 (weed kill ratio 70% or more, less than 90%)
[42]
  e (wheat) effect on crop grade: 0 (weed kill ratio 5% or less (practically no effect))
[43]
  f (beet) effect on crop grade: 4 (weed kill ratio 70% or more, less than 90%)
[44]
  g (rapeseed) effect on crop grade: 1 (weed kill ratio 5% or more, less than 20%)

— patent US9738634B2, “Heterocyclic amide compound and herbicide” (SYNGENTA PARTICIPATIONS AG, priority 2013, dated 2017)
